Key:
human TDO2 = biological target: T1, human TDO2 (Homo sapiens, UniProt P48775); assay: TDO2 cellular activity assay (SW48 cells, NFK + KYN in supernatant by LCMS); format: cell-based; conditions: 24 h, 200 µM Trp
T1 construct: SW48 cells, which express a high level of endogenous TDO2; endogenous in cells; host or cells: SW48 cells (ATCC CCL-231)
Protocol: The inhibitor compound 1 (Cpd-1) (IUPAC name ethyl 9-(3-(2-propylphenyl)-1-(1-phenylethyl)ureido)-2-methoxy-4-oxo-6,7,8,9-tetrahydro-4H-pyrido[1,2-a]pyrimidine-3-carboxylate) was identified as a hit in a high throughput screening campaign of a diverse set of 244,625 compounds in a human TDO2 cellular assay utilizing SW48 cells, which express a high level of endogenous TDO2. TDO2 activity was assessed by measuring the accumulation of the TDO2 product NFK and downstream product KYN in the supernatant. The potent inhibitor compound 2 (Cpd-2) (IUPAC name ethyl 9-(3-(2-isopropylphenyl)-1-((S)-1-phenylethyl)ureido)-2-methoxy-4-oxo-6,7,8,9-tetrahydro-4H-pyrido[1,2-a]pyrimidine-3-carboxylate) was identified during initial structure activity relationship studies of Cpd-1 analogs.
SW48 cells (source: American Type Culture Collection (ATCC), CCL-231) were used to measure the TDO2 inhibitory activity of compounds and were routinely maintained in DMEM high glucose/GlutaMAX^TM/pyruvate (Gibco, 10569010) 90% (v/v), FCS (Gibco, 10500, heat inactivated)10% (v/v), Penicillin/streptomycin (Gibco, 15140) 1% (v/v). […]
The 384 deep well plate containing 3 µl supernatant and 25 µl H2O per well were further processed for LCMS. […] NFK and kynurenine were quantified by LCMS, normalized to the internal standard Trp-(indole-d5) and the sum was calculated. […]

[1] = biological target: T2, recombinant human TDO2 (holo-TDO2) (Homo sapiens, UniProt P48775); assay: Holo-TDO2 enzymatic assay; format: biochemical
T2 construct: a construct encoding amino acids 19–406 of human TDO2 with an N-terminal six histidine tag; PreScission protease cleavage site (linker) (N); made in house; host or cells: E. coli BL21(DE3)
T2 sequence (P48775 19-406): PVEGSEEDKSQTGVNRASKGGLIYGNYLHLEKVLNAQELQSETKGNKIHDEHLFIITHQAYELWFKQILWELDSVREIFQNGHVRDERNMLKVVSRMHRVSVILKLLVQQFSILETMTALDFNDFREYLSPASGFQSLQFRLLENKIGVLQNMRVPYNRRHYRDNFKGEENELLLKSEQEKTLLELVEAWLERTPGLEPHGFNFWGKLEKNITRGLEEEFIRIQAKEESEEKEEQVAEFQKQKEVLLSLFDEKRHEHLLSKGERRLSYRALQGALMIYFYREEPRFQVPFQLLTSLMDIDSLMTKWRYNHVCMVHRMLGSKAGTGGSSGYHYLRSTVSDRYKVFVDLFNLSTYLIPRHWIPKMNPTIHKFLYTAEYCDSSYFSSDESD
Protocol: The IC50 curve is shown in supplementary Fig. S1 online. We speculate that the observed IC50 shift may be due to the kinetics of heme dissociation from holo-TDO2 and/or the absence of alternative heme binding proteins in the assay system. The structurally similar Cpd-2 was not tested in the enzymatic assay.
For the enzymatic assay, recombinant human TDO2 comprising amino acids […] with a N-terminal hexahistidine tag, expressed in Escherichia coli and purified to homogeneity, was incubated in assay buffer consisting of 75 mM phosphate buffer at pH 7.0 supplemented with 100 µM ascorbic acid, 50 U/ml catalase, 0.01% bovine serum albumin (BSA), and 0.01% Tween 20 (protocol modified from[45]).

IDO1 = biological target: T3, IDO1 (Homo sapiens, UniProt P14902); assay: IDO1 cellular activity assay (IFNγ-stimulated SKOV3 cells); format: cell-based; conditions: IFNγ 50 ng/ml, 24 h
T3 construct: SKOV3 cells treated with IFNγ to induce IDO expression; endogenous in cells; host or cells: SKOV3 cells (NCI No. 0503405), IFNγ-stimulated
T3 sequence (P14902 whole entry): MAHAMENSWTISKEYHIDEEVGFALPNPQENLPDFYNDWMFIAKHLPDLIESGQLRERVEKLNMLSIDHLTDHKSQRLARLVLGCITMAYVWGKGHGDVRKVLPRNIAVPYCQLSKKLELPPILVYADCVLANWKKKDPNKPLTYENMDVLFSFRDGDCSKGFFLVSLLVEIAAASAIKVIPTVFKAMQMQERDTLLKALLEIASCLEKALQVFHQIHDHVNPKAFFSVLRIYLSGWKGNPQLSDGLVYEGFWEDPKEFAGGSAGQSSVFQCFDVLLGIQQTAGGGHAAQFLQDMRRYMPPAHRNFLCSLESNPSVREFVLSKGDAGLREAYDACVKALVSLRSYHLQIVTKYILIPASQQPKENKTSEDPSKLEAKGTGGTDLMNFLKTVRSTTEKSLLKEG
Protocol: A cellular assay similar to the TDO2 assay was used to measure IDO1 inhibition in SKOV3 cells.
SKOV3 cells (source: National Cancer Institute (NCI), No. 0503405) which upregulate IDO1 after stimulation with IFNγ were used to measure compounds for IDO1 inhibitory activity. SKOV3 cells were routinely maintained in RPMI 90% (v/v), FCS 10% (v/v), Penicilin/streptomycin 1% (v/v). SKOV3 cells were seeded in 384 well plates at a density of 8000 cells in 45 µl per well or 4000 cells in 45 µl per well, respectively. Plates were incubated at 37 °C / 5% CO2 for 24 h. On the next day, 10 µl compound in serial dilutions (tested concentration range 10 µM-0.5 nM) and 200 µM L-tryptophan were added as well as IFNγ at a final concentration of 50 ng/ml. After 24 h of incubation at 37 °C / 5% CO2, 3 µl of the supernatant per well was transferred to 25 µl H2O per well in a 384 deep well plate and 25 µl of the supernatant per well was transferred to waste. The SKOV3 cell plates with 25 µl supernatant per well remaining were used to measure viability (see below). […] NFK and kynurenine (KYN) were quantified by LCMS, normalized to the internal standard L-tryptophan-(indole-d5) and the sum was calculated. […] For each compound concentration the percentage of activity compared to 0% and 100% effect was calculated as average ± STDEV (each concentration measured in duplicate). […]

T1 sequence (P48775 whole entry): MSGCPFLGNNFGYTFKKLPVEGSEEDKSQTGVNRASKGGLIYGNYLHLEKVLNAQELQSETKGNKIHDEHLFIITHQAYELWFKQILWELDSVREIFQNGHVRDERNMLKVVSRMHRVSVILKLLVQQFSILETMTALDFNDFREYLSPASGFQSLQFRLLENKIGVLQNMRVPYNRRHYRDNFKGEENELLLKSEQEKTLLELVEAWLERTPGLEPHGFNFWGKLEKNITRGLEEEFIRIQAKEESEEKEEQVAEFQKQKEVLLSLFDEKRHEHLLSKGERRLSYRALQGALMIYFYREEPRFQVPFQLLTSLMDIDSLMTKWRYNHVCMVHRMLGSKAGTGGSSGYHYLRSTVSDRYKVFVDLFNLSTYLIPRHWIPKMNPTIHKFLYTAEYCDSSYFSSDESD

| Compound | IC50 (human TDO2) | IC50 ([1]; 30 min assay at room temperature after 30 min pre-incubation with holo-TDO2, read-out: enzymatic assay IC50 (holo form of TDO2)) | fold less potent in enzymatic assay than in the cellular assay ([1]; enzymatic IC50 vs TDO2 cellular IC50) | IC50 (IDO1) |
| --- | --- | --- | --- | --- |
| CCCc1ccccc1NC(=O)N(C(C)c1ccccc1)C1CCCn2c1nc(OC)c(C(=O)OCC)c2=O (stereo not drawn) [Cpd-1, ethyl 9-(3-(2-propylphenyl)-1-(1-phenylethyl)ureido)-2-methoxy-4-oxo-6,7,8,9-tetrahydro-4H-pyrido[1,2-a]pyrimidine-3-carboxylate] | 0.327 µM | 17.4 µM | 53 fold | 5.7 µM |
| CCOC(=O)c1c(OC)nc2n(c1=O)CCCC2N(C(=O)Nc1ccccc1C(C)C)[C@@H](C)c1ccccc1 (mixture of isomers) [Cpd-2, ethyl 9-(3-(2-isopropylphenyl)-1-((S)-1-phenylethyl)ureido)-2-methoxy-4-oxo-6,7,8,9-tetrahydro-4H-pyrido[1,2-a]pyrimidine-3-carboxylate] | 0.0148 µM |  |  | > 10 µM |

From publication PMC11561238, “Discovery and binding mode of small molecule inhibitors of the apo form of human TDO2” (Scientific Reports, 2024)
